# Measured values taken from patent publication EP4778933A1 (Chengdu Hyperway Pharmaceuticals Co., Ltd., priority 2023, dated 2025).
# Columns and labels:
# RKN (KRAS G12V) = test: 3D cell proliferation inhibition test (CellTiter-Glo 3D, 7 days), RKN; assay type: cell-based; settings: 168 h, read-out: Inhibitory activity on cell proliferation (IC50) RKN (KRAS G12V)
# Protocol: The diluted compounds to be tested were added to 384-well low-adhesion KRAS mutant types (such as GP2D, NCI H358, LoVo, RKN and KP2) of cell culture plates by using a nanoliter pipetting system (LABCYTE, P-0200). Then, the cells were plated and incubated in a 37°C, 5% CO2 incubator for 7 days. Afterward, CellTiter-Glo® 3D reagent was added, and the luminescent values were read by an Envision multifunctional microplate reader (the luminescent signal is proportional to the amount of ATP in the system, and the ATP content directly represents the number of viable cells in the system). Finally, the IC50 values (half-maximal inhibitory concentration) of the compounds were obtained by the XLFIT software using the nonlinear fitting formula.
# • a) The diluted compounds to be tested were added to 384-well low-adhesion KRAS mutant types of cell culture plates by using a nanoliter pipetting system. • b) Cells were seeded into the 384-well plates in a) and then centrifuged at 1000 rpm for 1 min at room temperature, with a final DMSO concentration of compound being 0.5%. The plates were then incubated in a 5% CO2 constant-temperature incubator at 37°C for 7 days. • c) CellTiter-Glo® 3D was added to the 384-well cell culture plates in b), shaken in the dark, and incubated at room temperature. • d) The luminescence values were read by using an Envision multifunctional microplate reader.
# The IC50 (half-maximal inhibitory concentration) values of the compounds were obtained by using XLFIT software according to the following nonlinear fitting formula: Y = Bottom + (Top−Bottom)/(1+10^(∧)((LogIC50−X)×HillSlope)) [formula] • X: log value of compound concentration. • Y: inhibition rate (%) [formula] • Negative control: DMSO. • Positive control: Medium only.
# [1] = test system: human colon cancer GP2D mouse xenograft tumors; test: In vivo drug efficacy, GP2D subcutaneous xenograft tumor model; design: species or system Balb/c nude mouse; settings: 30 mg/kg, PO; for inhibitory effects on human colon cancer GP2D mouse xenograft tumors: BID, 28 days; for Tumor volume inhibition rate (TGI): GP2D xenograft, BID × 28, day 28
# Protocol: A human colon cancer GP2D cell subcutaneous xenograft tumor Balb/c nude mouse model was established. GP2D tumor cells resuspended in DMEM medium were inoculated subcutaneously on the right side of the experimental animal at 1×10^7 + gel/0.1 mL. When the tumor grew to about 150-200 mm^3, administration in groups began, with 5 animals in each group. On the day of the experiment, the animals were given corresponding drugs according to the groups. The first group G1 was set as a solvent group, and 50 mM citrate buffer (pH 5.0) + 10% Captisol was given by gavage alone. The second group G2 was given a 50 mM citrate buffer (pH 5.0) + 10% Captisol of compound 26. The third group G3 was given a 50 mM citrate buffer (pH 5.0) + 10% Captisol of compound 31. Table 5: Study on effect of test substances on animal tumor size in human colon cancer GP2D mouse xenograft tumor model
# During the experiment, the body weight and tumor size of the animals were measured twice a week, and the clinical symptoms of the animals were observed and recorded every day. Each drug administration was based on the most recent weighing of the animals.
# The tumor was measured with a digital vernier caliper to measure the length (a) and width (b). The tumor volume (TV) was calculated using the following formula: TV = a × b^2 /2. [formula]
# [2] = In vivo pharmacokinetic test in rats; design: species or system SD Rats; settings: male rats; for AUC / Cmax: rat, oral, single dose 30 mg/kg, plasma; for F: oral 30 mg/kg vs intravenous
# Protocol: Each test compound was administered orally once to male […] rats for pharmacokinetic study. The test compounds were prepared on the day of administration. The intravenous administration solvent: 5% DMSO + 10% solutol + 85% saline; and the oral administration solvent: 50 mM sodium citrate (pH 5.0) + 10% captisol. The oral administration was conducted in a dose of 30 mg/kg. The animals were fasted for 10-14 h before oral administration, and the feeding was resumed 4 h after administration. Pharmacokinetic samples were collected through the orbit. The collection time points were: 5 min (intravenous administration), 15 min, 30 min, 1 h, 2 h, 4 h, 6 h, 8 h and 24 h after administration. Three whole blood samples were collected at each time point, with a collection volume of about 0.2 mL, and anticoagulated with sodium heparin. After blood samples were collected, they were immediately placed on ice and centrifuged within 1 h to isolate plasma (centrifugation conditions: 8000 rpm, 1 min, 2-8°C). The collected plasma was stored in a -20°C refrigerator before analysis. The concentrations of compounds in the plasma samples were determined using an LC-MS/MS analysis method. Table 4: Pharmacokinetic test results of some compounds in SD Rats
AUC ([2]; Sprague-Dawley (SD)) [ng·h/mL],Cmax ([2]; Sprague-Dawley (SD)) [ng/mL],SMILES,IC50 (RKN (KRAS G12V)) [nM],inhibitory effects on human colon cancer GP2D mouse xenograft tumors [1],Tumor volume inhibition rate (TGI) [1] [%],F [2] [%],AUC ([2]; in vivo) [ng·h/mL],Cmax ([2]; in vivo) [ng/mL]
11300,1030,"CC1(O)COCCN(c2nc(OCC34CCCN3C(c3cc(F)c(F)c(F)c3)CC4)nc3c(F)c(-c4cccc5sc(N)c(C#N)c45)c(I)cc23)C1 (single isomer, unassigned) [Example 31, 2-amino-4-[6-iodo-8-fluoro-4-(6-hydroxy-6-methyl-1,4-oxazepan-4-yl)-2-({[3-(3,4,5-trifluorophenyl)-2,3,5,6,7,7a-hexahydro-1H-pyrrolizin-7a-yl]methyl}oxy)quinazolin-7-yl]benzo[b]thiophene-3-carbonitrile]",3.69,significant inhibitory effects,86.7,21.5,,
,,"CC1(O)COCCN(c2nc(OCC34CCCN3C(c3cc(F)c(F)c(F)c3)CC4)nc3c(F)c(-c4cccc5sc(N)c(C#N)c45)c(Br)cc23)C1 (single isomer, unassigned) [Example 26, 2-amino-4-[6-bromo-8-fluoro-4-(6-hydroxy-6-methyl-1,4-oxazepan-4-yl)-2-({[3-(3,4,5-trifluoropheny 1)-2,3,5,6,7,7a-hexahydro-1H-pyrrolizin-7a-yl]methyl}oxy)quinazolin-7-yl]benzo[b]thiophene-3-carb onitrile]",4.32,significant inhibitory effects,72.7,22.3,12400,1190
